pEC50: −log10 of the molar value. Where two headings read alike, the source gives them in different places.
Target: T1, CFTR (F508del/MF-HBE cells) (Homo sapiens, UniProt P13569, DEL508-508)
T1 construct: human bronchial epithelial (HBE) cells derived from CF subjects heterozygous for F508del and a minimal function CFTR mutation (F508del/MF-HBE); endogenous in cells; host or cells: Primary human bronchial epithelial cells from CF subjects (F508del/MF genotype), differentiated at an air-liquid interface
T1 sequence (P13569 with tags, fused parts or gaps DEL508-508): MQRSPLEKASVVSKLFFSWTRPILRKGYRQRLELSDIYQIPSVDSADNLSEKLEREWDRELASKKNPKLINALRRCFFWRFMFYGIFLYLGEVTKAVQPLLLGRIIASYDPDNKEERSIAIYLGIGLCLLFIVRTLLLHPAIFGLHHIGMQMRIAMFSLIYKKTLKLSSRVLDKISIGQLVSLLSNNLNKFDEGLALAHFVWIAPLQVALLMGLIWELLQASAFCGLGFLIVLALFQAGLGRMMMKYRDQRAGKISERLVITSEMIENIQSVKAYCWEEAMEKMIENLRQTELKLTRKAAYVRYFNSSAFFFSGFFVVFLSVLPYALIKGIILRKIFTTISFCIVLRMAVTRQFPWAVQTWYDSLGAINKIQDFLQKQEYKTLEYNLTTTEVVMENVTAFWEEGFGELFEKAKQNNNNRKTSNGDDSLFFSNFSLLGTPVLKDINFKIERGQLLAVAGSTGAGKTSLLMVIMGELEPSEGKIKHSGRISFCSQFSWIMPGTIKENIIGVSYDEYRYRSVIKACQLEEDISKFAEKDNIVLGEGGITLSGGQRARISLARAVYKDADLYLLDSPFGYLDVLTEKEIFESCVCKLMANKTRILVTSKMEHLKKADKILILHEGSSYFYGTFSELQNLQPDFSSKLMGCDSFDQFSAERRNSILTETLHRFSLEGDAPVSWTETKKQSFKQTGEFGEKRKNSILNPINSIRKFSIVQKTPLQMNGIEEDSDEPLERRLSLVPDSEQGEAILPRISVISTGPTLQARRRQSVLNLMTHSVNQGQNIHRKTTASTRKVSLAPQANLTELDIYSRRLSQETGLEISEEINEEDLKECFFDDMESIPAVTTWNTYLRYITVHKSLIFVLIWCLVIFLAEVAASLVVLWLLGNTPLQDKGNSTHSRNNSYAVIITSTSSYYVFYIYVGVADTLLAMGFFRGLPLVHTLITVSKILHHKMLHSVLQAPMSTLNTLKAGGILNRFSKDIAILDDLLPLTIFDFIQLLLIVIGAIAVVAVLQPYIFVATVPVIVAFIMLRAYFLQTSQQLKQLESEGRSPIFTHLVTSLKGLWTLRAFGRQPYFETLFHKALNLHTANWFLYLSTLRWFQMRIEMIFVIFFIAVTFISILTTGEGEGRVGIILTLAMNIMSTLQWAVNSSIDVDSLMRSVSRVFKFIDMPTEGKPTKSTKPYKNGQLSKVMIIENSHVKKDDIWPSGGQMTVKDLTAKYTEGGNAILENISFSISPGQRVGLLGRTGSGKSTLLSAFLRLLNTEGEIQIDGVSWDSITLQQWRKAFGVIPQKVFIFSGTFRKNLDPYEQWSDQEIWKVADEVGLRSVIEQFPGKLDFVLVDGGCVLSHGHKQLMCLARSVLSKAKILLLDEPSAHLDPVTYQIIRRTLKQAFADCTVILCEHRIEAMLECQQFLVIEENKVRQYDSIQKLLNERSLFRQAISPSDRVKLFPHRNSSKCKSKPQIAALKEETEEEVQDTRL
Test: Ussing chamber assay of CFTR-mediated short-circuit currents, Assay C (0.026 μM to 25 μM, 6 concentrations)
Format: cell-based
Conditions: with 33 nM potentiator and 18 μM Tezacaftor, 20% human serum; for Emax: read-out: C Max activity (%)
Method: Ussing chamber experiments were performed using human bronchial epithelial (HBE) cells derived from CF subjects heterozygous for F508del and a minimal function CFTR mutation (F508del/MF-HBE) and cultured as previously described (Neuberger T, Burton B, Clark H, Van Goor F Methods Mol Biol 2011:741:39-54). After four days the apical media was removed, and the cells were grown at an air liquid interface for >14 days prior to use.
To isolate the CFTR-mediated short-circuit (ISC) current, F508del/MF-HBE grown on Costar® Snapwell™ cell culture inserts were mounted in an Ussing chamber and the transepithelial ISC was measured under voltage-clamp recording conditions (Vhold=0 mV) at 37° C. The basolateral solution contained (in mM) 145 NaCl, 0.83 K2HPO4, 3.3 KH2PO4, 1.2 MgCl2, 1.2 CaCl2, 10 Glucose, 10 HEPES (pH adjusted to 7.4 with NaOH) and the apical solution contained (in mM) 145 NaGluconate, 1.2 MgCl2, 1.2 CaCl2, 10 glucose, 10 HEPES (pH adjusted to 7.4 with NaOH) and 30 μM amiloride to block the epithelial sodium channel. Forskolin (20 μM) was added to the apical surface to activate CFTR, followed by apical addition of a CFTR inhibitor cocktail consisting of BPO, GlyH-101, and CFTR inhibitor 172 (each at 20 μM final assay concentration) to specifically isolate CFTR currents. The CFTR-mediated ISC (μA/cm^2) for each condition was determined from the peak forskolin response to the steady-state current following inhibition.
The activity of the CFTR corrector compounds on the CFTR-mediated ISC was determined in Ussing chamber studies as described above. The F508del/MF-HBE cell cultures were either incubated with the corrector compounds at a range of concentrations in combination with 33 nM (6R,12R)-17-amino-12-methyl-6,15-bis(trifluoromethyl)-13,19-dioxa-3,4,18-triazatricyclo[12.3.1.12,5]nonadeca-1(18),2,4,14,16-pentaen-6-ol and 18 μM Tezacaftor or were incubated with the corrector compounds at a single fixed concentration of 1 μM in combination with 44 nM (6R,12R)-17-amino-12-methyl-6,15-bis(trifluoromethyl)-13,19-dioxa-3,4,18-triazatricyclo[12.3.1.12,5]nonadeca-1(18),2,4,14,16-pentaen-6-ol and 18 μM Tezacaftor for 18-24 hours at 37° C. and in the presence of 20% human serum. The concentration of corrector compounds with 44 nM or 33 nM (6R,12R)-17-amino-12-methyl-6,15-bis(trifluoromethyl)-13,19-dioxa-3,4,18-triazatricyclo[12.3.1.12,5]nonadeca-1(18),2,4,14,16-pentaen-6-ol and 18 μM Tezacaftor during the 18-24 hours incubations was kept constant throughout the Ussing chamber measurement of the CFTR-mediated ISC to ensure compounds were present throughout the entire experiment. The efficacy and potency of the putative F508del correctors was compared to that of the known Vertex corrector, (14S)-8-[3-(2-{Dispiro[2.0.2.1]heptan-7-yl}ethoxy)-1H-pyrazol-1-yl]-12,12-dimethyl-2λ^6-thia-3,9,11,18,23-pentaazatetracyclo[17.3.1.111,14.05,10]tetracosa-1(22),5,7,9,19(23),20-hexaene-2,2,4-trione, in combination with 18 μM Tezacaftor and 1 μM Ivacaftor.
• Assay A: 0.1 μM to 25 μM, 6 concentrations • Assay B: 0.00001 μM to 25 μM, 12 concentrations • Assay C: 0.026 μM to 25 μM, 6 concentrations • Assay D: Activity at single concentration of 1 μM

| Compound | pEC50 | Emax [%] | Emax (18-24 hours) [%] |
| --- | --- | --- | --- |
| CCc1cccc(CC)c1-c1nc2nc(c1C)OC[C@@H](CC(C)(C)C)N(Cc1cnc3cc(C4(C)CC4)n(C)c3n1)C(=O)c1cccc(c1)S(=O)(=O)N2 [IV-90] | 5.52 to 6.00 | > 60 |  |
| Cc1cccc(C)c1-c1cc2nc(n1)NS(=O)(=O)c1cccc(c1)C(=O)N(Cc1nc3cc(C4CC4)oc3cc1F)[C@H](COC(C)C)CO2 [Compound I-198] | 5.52 to 6.00 |  | > 60 |
| Cc1cccc(CC(C)C)c1-c1nc2nc(c1C)OC[C@@H](COC(C)C)N(Cc1cnc3cc(C(C)(C)C(F)(F)F)n(C)c3n1)C(=O)c1cccc(c1)S(=O)(=O)N2 [IV-101] | > 6.00 | > 60 |  |
| Cc1cccc(C)c1-c1cc2nc(n1)NS(=O)(=O)c1cccc(c1)C(=O)N(Cc1cnc3oc(C4(C)CC4)cc3n1)[C@H](C[C@@H]1CCCO1)CO2 [IV-84] | 5.52 to 6.00 | > 60 |  |
| Cc1cccc(C)c1-c1cc2nc(n1)NS(=O)(=O)c1cccc(c1)C(=O)N(Cc1cnc3oc(C(C)(C)C)cc3n1)[C@H](COC(C)C)CO2 [Compound I-174] | 4.52 to 5.52 |  | > 60 |
| CCc1cccc(CC)c1-c1cc2nc(n1)NS(=O)(=O)c1cccc(c1)C(=O)N(Cc1cnc3oc(C(C)(C)C)cc3n1)[C@H](CC(C)(C)C)CO2 [IV-67] | 4.52 to 5.52 | > 60 |  |
| Cc1cccc(CC(C)C)c1-c1nc2nc(c1C)OC[C@@H](COC(C)C)N(Cc1cnc3cc(C4(C(F)(F)F)CC4)n(C)c3n1)C(=O)c1cccc(c1)S(=O)(=O)N2 (atropisomer, axis not shown; (P)) [IV-76, (5P,11R)-7-methyl-6-[2-methyl-6-(2-methylpropyl)phenyl]-12-({5-methyl-6-[1-(trifluoromethyl)cyclopropyl]-5H-pyrrolo[2,3-b]pyrazin-3-yl}methyl)-11-[(propan-2-yloxy)methyl]-9-oxa-2λ^6-thia-3,5,12,19-tetraazatricyclo[12.3.1.1∧{4,8}]nonadeca-1(18),4(19),5,7,14,16-hexaene-2,2,13-trione] | > 6.00 | > 60 |  |
| Cc1cccc(C)c1-c1cc2nc(n1)NS(=O)(=O)c1cccc(c1)C(=O)N(Cc1cnc3oc(C(C)(C)C)cc3n1)[C@H](C[C@@H]1CCCCO1)CO2 [IV-85] | 5.52 to 6.00 | > 60 |  |
| Cc1cccc(CC(C)C)c1-c1nc2nc(c1C)OC[C@@H](COC(F)(F)F)N(Cc1cnc3cc(C(C)(C)C)n(C)c3n1)C(=O)c1cccc(c1)S(=O)(=O)N2 (atropisomer, axis not shown; (P)) [IV-70, (6P,11S)-12-({6-tert-butyl-5-methyl-5H-pyrrolo[2,3-b]pyrazin-3-yl}methyl)-7-methyl-6-[2-methyl-6-(2-methylpropyl)phenyl]-11-[(trifluoromethoxy)methyl]-9-oxa-2λ^6-thia-3,5,12,19-tetraazatricyclo[12.3.1.1∧{4,8}]nonadeca-1(17),4,6,8(19),14(18),15-hexaene-2,2,13-trione] | 5.52 to 6.00 | > 60 |  |
| COc1c2nc(nc1-c1c(C)cccc1C)NS(=O)(=O)c1cccc(c1)C(=O)N(Cc1cnc3cc(C4(C(F)(F)F)CC4)n(C)c3n1)[C@H](COC(C)C)CO2 [IV-104] | 5.52 to 6.00 | > 60 |  |
| CCc1cccc(CC)c1-c1nc2nc(c1C)OC[C@@H](CC(C)(C)C)N(Cc1cnc3cc(C(C)(C)C)n(C)c3n1)C(=O)c1cccc(c1)S(=O)(=O)N2 [IV-91] | > 6.00 | > 60 |  |
| Cc1cccc(C)c1-c1cc2nc(n1)NS(=O)(=O)c1cccc(c1)C(=O)N(Cc1cnc3oc(C4(C)CC4)cc3n1)[C@H](C[C@@H]1CCCCO1)CO2 [IV-87] | 4.52 to 5.52 | > 60 |  |
| Cc1cccc(CC(C)C)c1-c1nc2nc(c1C)OC[C@@H](CC1(C)CC1)N(Cc1cnc3cc(C(C)(C)C)n(C)c3n1)C(=O)c1cccc(n1)S(=O)(=O)N2 [IV-72] | 5.52 to 6.00 | > 60 |  |
| Cc1cccc(C)c1-c1nc2nc(c1C)OC[C@@H](CC(C)(C)C)N(Cc1ncc3oc(C(C)(C)C)cc3n1)C(=O)c1cccc(c1)S(=O)(=O)N2 [Compound I-259] | > 6.00 |  | > 60 |
| CCc1cccc(CC)c1-c1cc2nc(n1)NS(=O)(=O)c1cccc(c1)C(=O)N(Cc1cnc3cc(C(C)(C)C)n(C)c3n1)[C@H](CC(C)(C)C)CO2 [IV-66] | > 6.00 | > 60 |  |
| Cc1cccc(CC(C)C)c1-c1nc2nc(c1C)OC[C@@H](COC(F)(F)F)N(Cc1cnc3cc(C4CC4)n(C)c3n1)C(=O)c1cccc(c1)S(=O)(=O)N2 [IV-69] | 5.52 to 6.00 | > 60 |  |

Other lines, results leading:

| pEC50 | Emax [%] | Emax (18-24 hours) [%] | Compound |
| --- | --- | --- | --- |
| > 6.00 | > 60 |  | COCc1c(C(C)(C)C)n(C)c2nc(CN3C(=O)c4cccc(c4)S(=O)(=O)Nc4nc(cc(-c5c(C)cccc5C)n4)OC[C@H]3CC34CC(C3)C4)cnc12 [IV-89, (11R)-11-(1-bicyclo[1.1.1]pentanylmethyl)-12-[[6-tert-butyl-7-(methoxymethyl)-5-methyl-pyrrolo[2,3-b]pyrazin-3-yl]methyl]-6-(2,6-dimethylphenyl)-2,2-dioxo-9-oxa-2λ^6-thia-3,5,12,19-tetrazatricyclo[12.3.1.14,8]nonadeca-1(18),4(19),5,7,14,16-hexaen-13-one] |
| > 6.00 | > 60 |  | Cc1cccc(C)c1-c1cc2nc(n1)NS(=O)(=O)c1cccc(c1)C(=O)N(Cc1ccn3cc(C(C)C)nc3n1)[C@H](CC13CC(C1)C3)CO2 [IV-63, (11R)-11-(1-Bicyclo[1.1.1]pentanylmethyl)-6-(2,6-dimethylphenyl)-12-[(2-isopropyl-imidazo[1,2-a]pyrimidin-7-yl)methyl]-2,2-dioxo-9-oxa-2λ^6-thia-3,5,12,19-tetrazatricyclo[12.3.1.14,8]nonadeca-1(18),4(19),5,7,14,16-hexaen-13-one] |
| > 6.00 | > 60 |  | COCCc1c(C(C)(C)C)n(C)c2nc(CN3C(=O)c4cccc(c4)S(=O)(=O)Nc4nc(cc(-c5c(C)cccc5C)n4)OC[C@H]3CC34CC(C3)C4)cnc12 [IV-82, (11R)-11-(1-bicyclo[1.1.1]pentanylmethyl)-12-[[6-tert-butyl-7-(2-methoxyethyl)-5-methyl-pyrrolo[2,3-b]pyrazin-3-yl]methyl]-6-(2,6-dimethylphenyl)-2,2-dioxo-9-oxa-2λ^6-thia-3,5,12,19-tetrazatricyclo[12.3.1.14,8]nonadeca-1(18),4(19),5,7,14,16-hexaen-13-one] |
| 4.52 to 5.52 |  | > 60 | Cc1cccc(C)c1-c1cc2nc(n1)NS(=O)(=O)c1cccc(c1)C(=O)N(Cc1ncc3oc(C4CC4)cc3n1)[C@H](CC1(C)CC1)CO2 [Compound I-199] |
| 5.52 to 6.00 | > 60 |  | Cc1cccc(C)c1-c1cc2nc(n1)NS(=O)(=O)c1cccc(c1)C(=O)N(Cc1cnc3oc(C(C)(C)C)cc3n1)[C@H](CC13CC(C)(C1)C3)CO2 [IV-53, (11R)-12-[(6-tert-butylfuro[2,3-b]pyrazin-2-yl)methyl]-6-(2,6-dimethylphenyl)-11-[(3-methyl-1-bicyclo[1.1.1]pentanyl)methyl]-2,2-dioxo-9-oxa-2λ^6-thia-3,5,12,19-tetrazatricyclo[12.3.1.14,8]nonadeca-1(18),4(19),5,7,14,16-hexaen-13-one] |
| 4.52 to 5.52 |  | > 60 | Cc1cccc(C)c1-c1cc2nc(n1)NS(=O)(=O)c1cccc(c1)C(=O)N(Cc1cnc3oc(C4CCC4)cc3n1)[C@H](CC1(C)CC1)CO2 [Compound I-133] |
| 5.52 to 6.00 |  | > 60 | Cc1cccc(C)c1-c1cc2nc(n1)NS(=O)(=O)c1cccc(c1)C(=O)N(Cc1cnc3c(n1)CN(C(C)C)C3=O)[C@H](CC1(C)CC1)CO2 [III-18] |
